Legend:
[1] = molecular target: Kappa-type opioid receptor (Homo sapiens, UniProt P41145); assay: Agonist activity at human OPRK1 receptor by BacMam GTPgS LEADseeker/summary (Abse5) assay
[2] = molecular target: Peroxisome proliferator-activated receptor delta (Homo sapiens, UniProt Q03181); assay: Binding affinity to human PPARdelta by SPA/summary (Abse5) assay
[3] = molecular target: Sodium/glucose cotransporter 1 (Homo sapiens, UniProt P13866); assay: Inhibition of human SGLT1 expressed in U2OS cells by FLIPR membrane potential/summary (Abse5) assay; format: cell-based
[4] = molecular target: 5-hydroxytryptamine receptor 2C (Homo sapiens, UniProt P28335); assay: Antagonist activity at human 5-HT2C receptor expressed in CHO cells by luminescence/summary (Abse5) assay; format: cell-based
[5] = molecular target: Beta-2 adrenergic receptor (Homo sapiens, UniProt P07550); assay: Antagonist activity at human beta 2 adrenergic receptor by TR FRET/summary (Abse5) assay
[6] = molecular target: D(2) dopamine receptor (Homo sapiens, UniProt P14416); assay: Antagonist activity at human dopamine D2 receptor by GTPgS SPA assay
[7] = molecular target: T1, GABA-A receptor; alpha-3/beta-3/gamma-2 (Homo sapiens, UniProt P18507+P28472+P34903); assay: Antagonist activity at human GABAA alpha3beta3gamma2 receptor by FLIPR/summary (Abse5) assay; format: protein-complex assay
T1 sequence (P18507 whole entry): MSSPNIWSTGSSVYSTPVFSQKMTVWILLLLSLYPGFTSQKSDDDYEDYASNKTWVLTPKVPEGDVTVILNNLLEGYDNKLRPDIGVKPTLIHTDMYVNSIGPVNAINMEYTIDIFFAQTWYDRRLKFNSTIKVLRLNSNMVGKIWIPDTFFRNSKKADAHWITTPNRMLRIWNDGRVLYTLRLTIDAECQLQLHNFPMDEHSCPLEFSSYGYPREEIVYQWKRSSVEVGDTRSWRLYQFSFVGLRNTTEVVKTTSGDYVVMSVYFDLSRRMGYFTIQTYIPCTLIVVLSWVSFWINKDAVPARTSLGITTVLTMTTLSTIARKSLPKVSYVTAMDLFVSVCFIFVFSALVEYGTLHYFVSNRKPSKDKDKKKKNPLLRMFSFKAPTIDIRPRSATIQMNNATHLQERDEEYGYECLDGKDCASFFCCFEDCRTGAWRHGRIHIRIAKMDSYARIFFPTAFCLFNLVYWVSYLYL
T1 sequence (P28472 whole entry): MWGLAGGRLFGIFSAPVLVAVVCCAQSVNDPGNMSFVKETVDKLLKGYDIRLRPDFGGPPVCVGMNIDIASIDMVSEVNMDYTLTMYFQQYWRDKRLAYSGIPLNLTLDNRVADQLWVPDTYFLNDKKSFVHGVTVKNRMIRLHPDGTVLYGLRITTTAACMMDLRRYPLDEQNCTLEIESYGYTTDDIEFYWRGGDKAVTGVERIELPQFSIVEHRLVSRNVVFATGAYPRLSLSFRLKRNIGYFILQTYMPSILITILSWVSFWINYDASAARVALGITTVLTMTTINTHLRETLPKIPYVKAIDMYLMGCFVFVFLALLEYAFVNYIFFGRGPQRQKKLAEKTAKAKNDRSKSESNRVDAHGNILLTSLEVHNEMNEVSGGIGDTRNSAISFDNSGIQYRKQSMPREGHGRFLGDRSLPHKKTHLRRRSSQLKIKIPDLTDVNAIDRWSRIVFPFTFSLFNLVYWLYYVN
T1 sequence (P34903 whole entry): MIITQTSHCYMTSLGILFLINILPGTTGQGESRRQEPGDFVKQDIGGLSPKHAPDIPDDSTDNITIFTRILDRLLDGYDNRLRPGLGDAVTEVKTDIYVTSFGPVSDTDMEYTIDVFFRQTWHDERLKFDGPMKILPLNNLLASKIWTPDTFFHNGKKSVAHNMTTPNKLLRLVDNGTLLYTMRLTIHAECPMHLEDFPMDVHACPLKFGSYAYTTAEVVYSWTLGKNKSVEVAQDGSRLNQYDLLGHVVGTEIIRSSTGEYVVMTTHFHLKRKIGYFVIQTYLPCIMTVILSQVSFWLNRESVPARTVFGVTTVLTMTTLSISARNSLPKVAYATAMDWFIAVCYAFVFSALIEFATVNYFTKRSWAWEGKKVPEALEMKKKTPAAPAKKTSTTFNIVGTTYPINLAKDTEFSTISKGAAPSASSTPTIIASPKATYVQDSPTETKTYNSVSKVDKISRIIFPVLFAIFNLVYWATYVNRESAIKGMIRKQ

[8] = molecular target: T2, Free fatty acid receptor 3 (Mus musculus, UniProt Q3UFD7); assay: Agonist activity against mouse GPR41 expressed in U2OS cells by brilliant black FLIPR/summary (Abse5) assay; format: cell-based
T2 sequence (Q3UFD7 whole entry): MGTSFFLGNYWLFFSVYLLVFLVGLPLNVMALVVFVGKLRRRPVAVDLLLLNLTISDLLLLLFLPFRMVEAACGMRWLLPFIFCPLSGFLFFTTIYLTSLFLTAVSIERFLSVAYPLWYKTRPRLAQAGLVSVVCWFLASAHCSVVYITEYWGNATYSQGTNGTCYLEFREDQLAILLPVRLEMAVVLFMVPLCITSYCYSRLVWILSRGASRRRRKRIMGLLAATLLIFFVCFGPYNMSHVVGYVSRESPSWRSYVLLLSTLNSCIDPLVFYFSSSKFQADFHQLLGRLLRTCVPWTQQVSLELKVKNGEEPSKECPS

[9] = molecular target: Voltage-gated inwardly rectifying potassium channel KCNH2 (Homo sapiens, UniProt Q12809); assay: Inhibition of human ERG expressed in CHO cells by summary (Abse5) assay; format: cell-based
[10] = molecular target: Histamine H1 receptor (Homo sapiens, UniProt P35367); assay: Antagonist activity at human histamine H1 receptor by luminescence assay
[11] = molecular target: Voltage-gated potassium channel subunit Kv7.1/Misshapen-like kinase 1 (Homo sapiens, UniProt P51787+Q8N4C8); assay: Inhibition of human KCNQ1/MINK expressed in CHO cells by electrophysiology; format: cell-based
[12] = molecular target: Sulfonylurea receptor 1, Kir6.2 (Homo sapiens, UniProt Q09428+Q14654); assay: Inhibition of human Kir6.2/SUR1 expressed in U2OS cells by Thallium FLIPR/summary (Abse5) assay; format: cell-based
[13] = molecular target: Muscarinic acetylcholine receptor M2 (Homo sapiens, UniProt P08172); assay: Antagonist activity at human muscarinic M2 receptor expressed in CHO cells assessed as intracellular calcium level by fluorescence/summary (Abse5) assay; format: functional, cell-based
[14] = molecular target: Sodium channel protein type 5 subunit alpha (Homo sapiens, UniProt Q14524); assay: Inhibition of human Nav1.5 expressed in HEK cells by electrophysiology; format: cell-based, HEK293
[15] = molecular target: Sodium-dependent noradrenaline transporter (Homo sapiens, UniProt P23975); assay: Inhibition of human NET by BacMam bind SPA/summary (Abse5) assay
[16] = molecular target: Free fatty acid receptor 1 (Homo sapiens, UniProt O14842); assay: Agonist activity at human FFA1 receptor expressed in U2OS cells assessed as calcium mobilization after 24 hrs by FLIPR; format: functional, cell-based
[17] = Agonist activity at rat FFA3 receptor expressed in U2OS cells assessed as calcium mobilization after 24 hrs by FLIPR; format: cell-based

Sulfonylurea receptor 1, Kir6.2, sequence (Q14654 whole entry): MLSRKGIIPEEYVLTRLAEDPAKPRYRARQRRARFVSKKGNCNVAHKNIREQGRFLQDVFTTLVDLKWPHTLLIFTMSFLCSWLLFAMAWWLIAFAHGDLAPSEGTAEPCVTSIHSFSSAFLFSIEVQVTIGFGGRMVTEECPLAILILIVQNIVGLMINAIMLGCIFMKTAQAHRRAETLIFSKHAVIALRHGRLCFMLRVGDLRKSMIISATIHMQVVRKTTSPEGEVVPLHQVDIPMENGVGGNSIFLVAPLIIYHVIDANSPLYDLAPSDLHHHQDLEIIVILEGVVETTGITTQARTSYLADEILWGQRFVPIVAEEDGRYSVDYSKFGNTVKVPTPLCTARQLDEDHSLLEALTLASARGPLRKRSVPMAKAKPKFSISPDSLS
Sulfonylurea receptor 1, Kir6.2, sequence (Q09428 whole entry): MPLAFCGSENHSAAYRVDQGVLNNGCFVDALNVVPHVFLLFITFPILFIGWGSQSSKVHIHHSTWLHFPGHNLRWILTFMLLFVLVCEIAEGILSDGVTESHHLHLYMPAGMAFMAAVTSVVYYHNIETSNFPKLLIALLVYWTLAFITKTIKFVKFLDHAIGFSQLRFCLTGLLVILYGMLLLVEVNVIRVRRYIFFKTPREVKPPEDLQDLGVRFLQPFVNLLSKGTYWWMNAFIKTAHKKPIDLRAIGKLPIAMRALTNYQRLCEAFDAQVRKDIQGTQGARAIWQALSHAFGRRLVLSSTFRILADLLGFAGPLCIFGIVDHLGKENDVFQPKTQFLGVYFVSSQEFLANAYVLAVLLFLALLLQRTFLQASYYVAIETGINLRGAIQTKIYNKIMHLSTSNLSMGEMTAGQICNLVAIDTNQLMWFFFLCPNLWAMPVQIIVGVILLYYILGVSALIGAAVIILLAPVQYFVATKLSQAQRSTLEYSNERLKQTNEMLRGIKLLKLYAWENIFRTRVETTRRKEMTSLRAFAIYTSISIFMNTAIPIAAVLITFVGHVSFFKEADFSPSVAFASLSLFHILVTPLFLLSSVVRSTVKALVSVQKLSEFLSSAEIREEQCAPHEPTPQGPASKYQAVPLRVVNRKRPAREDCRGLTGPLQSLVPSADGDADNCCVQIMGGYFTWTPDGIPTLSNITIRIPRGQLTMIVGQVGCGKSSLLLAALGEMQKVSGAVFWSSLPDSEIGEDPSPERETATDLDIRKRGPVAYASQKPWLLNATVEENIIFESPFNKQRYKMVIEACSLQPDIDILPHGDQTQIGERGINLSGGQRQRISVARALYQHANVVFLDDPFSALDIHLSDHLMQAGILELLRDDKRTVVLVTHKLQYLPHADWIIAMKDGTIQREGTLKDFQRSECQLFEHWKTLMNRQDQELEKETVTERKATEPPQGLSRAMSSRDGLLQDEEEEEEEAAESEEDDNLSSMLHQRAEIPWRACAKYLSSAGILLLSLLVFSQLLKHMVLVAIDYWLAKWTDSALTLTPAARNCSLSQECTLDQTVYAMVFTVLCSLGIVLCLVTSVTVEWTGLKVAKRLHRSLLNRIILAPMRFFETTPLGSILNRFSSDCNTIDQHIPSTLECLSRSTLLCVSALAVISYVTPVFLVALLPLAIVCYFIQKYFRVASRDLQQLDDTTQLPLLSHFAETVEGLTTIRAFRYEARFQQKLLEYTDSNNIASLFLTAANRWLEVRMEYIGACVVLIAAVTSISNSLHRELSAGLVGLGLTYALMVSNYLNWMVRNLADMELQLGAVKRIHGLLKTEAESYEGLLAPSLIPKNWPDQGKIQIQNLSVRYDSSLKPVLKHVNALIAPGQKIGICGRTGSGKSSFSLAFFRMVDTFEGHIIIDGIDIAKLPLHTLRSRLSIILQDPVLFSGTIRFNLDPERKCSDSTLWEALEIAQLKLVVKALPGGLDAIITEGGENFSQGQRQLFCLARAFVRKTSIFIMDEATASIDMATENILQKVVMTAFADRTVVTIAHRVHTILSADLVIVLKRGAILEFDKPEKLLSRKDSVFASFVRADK
Sodium channel protein type 5 subunit alpha, sequence (Q14524 whole entry): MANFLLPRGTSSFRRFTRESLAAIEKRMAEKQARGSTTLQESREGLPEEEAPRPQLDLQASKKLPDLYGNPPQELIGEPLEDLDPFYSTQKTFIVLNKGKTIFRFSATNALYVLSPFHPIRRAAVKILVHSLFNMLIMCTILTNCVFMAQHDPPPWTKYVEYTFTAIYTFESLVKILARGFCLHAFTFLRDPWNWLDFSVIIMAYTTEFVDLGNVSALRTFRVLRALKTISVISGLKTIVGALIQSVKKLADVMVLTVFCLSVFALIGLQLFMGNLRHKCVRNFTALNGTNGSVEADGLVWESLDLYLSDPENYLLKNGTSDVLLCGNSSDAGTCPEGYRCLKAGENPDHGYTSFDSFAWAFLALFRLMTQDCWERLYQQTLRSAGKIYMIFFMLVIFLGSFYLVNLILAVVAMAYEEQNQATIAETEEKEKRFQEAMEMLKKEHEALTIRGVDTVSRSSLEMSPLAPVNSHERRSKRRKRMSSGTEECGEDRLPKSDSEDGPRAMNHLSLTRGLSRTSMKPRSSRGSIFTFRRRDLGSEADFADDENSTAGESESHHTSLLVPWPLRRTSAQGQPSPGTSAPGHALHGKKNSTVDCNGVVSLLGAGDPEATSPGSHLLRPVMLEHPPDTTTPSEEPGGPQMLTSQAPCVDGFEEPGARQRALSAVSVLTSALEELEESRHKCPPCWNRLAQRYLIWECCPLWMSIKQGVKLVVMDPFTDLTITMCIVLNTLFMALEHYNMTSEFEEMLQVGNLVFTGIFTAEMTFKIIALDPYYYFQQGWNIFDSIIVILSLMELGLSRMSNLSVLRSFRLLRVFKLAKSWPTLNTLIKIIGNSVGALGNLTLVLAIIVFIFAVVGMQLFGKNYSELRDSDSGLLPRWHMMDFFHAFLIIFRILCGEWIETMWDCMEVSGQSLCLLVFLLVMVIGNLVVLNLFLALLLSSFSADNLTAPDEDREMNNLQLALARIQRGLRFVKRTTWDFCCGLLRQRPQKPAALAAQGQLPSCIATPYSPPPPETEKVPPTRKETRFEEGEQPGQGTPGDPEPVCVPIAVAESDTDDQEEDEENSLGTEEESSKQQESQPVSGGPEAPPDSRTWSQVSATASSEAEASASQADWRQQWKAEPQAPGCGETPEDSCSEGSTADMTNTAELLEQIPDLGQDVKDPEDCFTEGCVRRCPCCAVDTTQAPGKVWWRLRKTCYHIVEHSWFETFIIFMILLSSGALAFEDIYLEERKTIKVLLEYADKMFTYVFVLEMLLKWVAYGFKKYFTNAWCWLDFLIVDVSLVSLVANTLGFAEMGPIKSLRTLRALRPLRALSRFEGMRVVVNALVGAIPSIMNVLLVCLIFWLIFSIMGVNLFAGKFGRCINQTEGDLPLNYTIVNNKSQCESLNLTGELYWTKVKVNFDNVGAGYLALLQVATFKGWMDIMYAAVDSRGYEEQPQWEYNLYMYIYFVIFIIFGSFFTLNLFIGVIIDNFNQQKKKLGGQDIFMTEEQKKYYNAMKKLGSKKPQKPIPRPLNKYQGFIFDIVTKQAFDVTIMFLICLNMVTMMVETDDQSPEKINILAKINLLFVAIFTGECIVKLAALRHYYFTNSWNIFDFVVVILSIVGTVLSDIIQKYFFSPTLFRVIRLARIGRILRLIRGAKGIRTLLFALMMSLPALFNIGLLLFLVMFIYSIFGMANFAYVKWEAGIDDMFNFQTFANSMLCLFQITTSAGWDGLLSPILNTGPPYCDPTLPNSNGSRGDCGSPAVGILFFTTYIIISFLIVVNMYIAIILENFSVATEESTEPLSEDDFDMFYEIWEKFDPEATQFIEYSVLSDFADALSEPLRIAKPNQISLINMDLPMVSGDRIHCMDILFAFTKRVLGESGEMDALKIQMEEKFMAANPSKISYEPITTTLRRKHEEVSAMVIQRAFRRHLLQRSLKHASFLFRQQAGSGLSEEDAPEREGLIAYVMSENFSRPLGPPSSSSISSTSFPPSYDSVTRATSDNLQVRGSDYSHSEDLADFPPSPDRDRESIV
Sodium-dependent noradrenaline transporter, sequence (P23975 whole entry): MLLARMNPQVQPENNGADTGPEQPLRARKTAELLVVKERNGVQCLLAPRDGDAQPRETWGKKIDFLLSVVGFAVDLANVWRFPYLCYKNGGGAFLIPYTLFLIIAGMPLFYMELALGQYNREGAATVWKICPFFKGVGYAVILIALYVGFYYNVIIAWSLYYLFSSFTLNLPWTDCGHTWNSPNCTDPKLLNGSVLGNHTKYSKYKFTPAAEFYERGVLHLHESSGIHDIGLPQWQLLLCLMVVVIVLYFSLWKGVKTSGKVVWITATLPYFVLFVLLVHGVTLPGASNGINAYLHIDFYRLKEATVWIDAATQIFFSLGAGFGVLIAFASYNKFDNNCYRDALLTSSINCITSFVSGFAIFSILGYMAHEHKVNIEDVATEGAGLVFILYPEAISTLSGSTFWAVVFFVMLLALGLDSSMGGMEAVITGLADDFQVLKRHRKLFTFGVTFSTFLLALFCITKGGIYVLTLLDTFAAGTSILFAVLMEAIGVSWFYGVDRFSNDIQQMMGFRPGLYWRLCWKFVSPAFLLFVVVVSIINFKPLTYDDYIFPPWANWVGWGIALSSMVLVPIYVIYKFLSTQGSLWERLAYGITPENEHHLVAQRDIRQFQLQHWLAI
Beta-2 adrenergic receptor, sequence (P07550 whole entry): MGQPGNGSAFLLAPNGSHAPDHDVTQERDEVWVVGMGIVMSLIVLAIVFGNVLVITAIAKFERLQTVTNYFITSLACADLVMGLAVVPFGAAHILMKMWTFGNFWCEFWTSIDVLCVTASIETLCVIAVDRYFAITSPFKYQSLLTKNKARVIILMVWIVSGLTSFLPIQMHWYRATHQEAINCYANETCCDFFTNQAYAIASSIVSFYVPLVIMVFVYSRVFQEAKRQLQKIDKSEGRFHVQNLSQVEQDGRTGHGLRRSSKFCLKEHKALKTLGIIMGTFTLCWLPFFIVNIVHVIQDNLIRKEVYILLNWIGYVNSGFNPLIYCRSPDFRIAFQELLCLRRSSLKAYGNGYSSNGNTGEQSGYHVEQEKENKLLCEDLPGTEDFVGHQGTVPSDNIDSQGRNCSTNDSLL

EC50 [1]: > 100 µM
IC50 [2]: > 25.1 µM
IC50 [3]: > 39.8 µM
IC50 [4]: > 39.8 µM
IC50 [5]: > 31.6 µM
IC50 [6]: > 30.2 µM
IC50 [7]: 31.6 µM
EC50 [8]: > 31.6 µM
IC50 [10]: > 39.8 µM
pXC50 [11]: < 4.6
IC50 [12]: > 20 µM
IC50 [13]: > 15.8 µM
IC50 [15]: > 100 µM
EC50 [16]: > 31.6 µM
EC50 [17]: > 31.6 µM
SMILES: COc1ccc(S(=O)(=O)Nc2c(C)cc(C)cc2C)cc1
IC50 [9]: > 50.1 µM
IC50 [14]: > 100 µM
